The record followed here is US12138277B2, “Oligosaccharides for use in the treatment of Parkinson's disease” (UNIVERSITA' DEGLI STUDI DI MILANO, priority 2018, dated 2024).

One series has as its system Neuroblastoma cells. Description: Excitotoxicity protection: DCB-induced death of neuroblastoma cells. It counts as cell-based. As to the method:
In Parkinson's disease, and more generally in the degenerative diseases of the central nervous system, there is a strong activation of the immune system, oxidative stress and excitotoxicity. Neuroblastoma cells were then treated with DCB (3′,4′-Dichlorobenzamyl hydrochloride) to induce an accumulation of intracellular calcium, an experimental strategy which mimics glutamate-induced excitotoxicity.

Series [1] relates to Neuroblastoma cells of murine origin. The experiment in a line: Proteomic analysis by mass spectroscopy of treated neuroblastoma cells. Type of series: cell-based. Conditions: after 24 h of treatment. On the procedure:
Neuroblastoma cells of murine origin were treated with β-Gal-(1-3)-β-GalNAc-(1-4)-[α-Neu5Ac-(2-3)]-β-Gal-(1-4)-Glc to induce neuronal differentiation (Chiricozzi et al. 2017 Journal of Neurochemistry 143:645-659). After 24 h of treatment, the cells were collected for protein analysis. […] These proteins are involved in cellular signaling of i) excitotoxicity neuroprotection; ii) inhibition of oxidative stress; iii) inhibition of microglia hyperactivation and downregulation of proinflammatory molecules.

A short description of series [2]: Crossing of the blood-brain barrier: radioactivity in brain areas after administration of tritiated oligosaccharide. It counts as in vivo, Wild-type mice (C57BL/6). The following applies: intraperitoneal, subcutaneous or intravenous administration; 10 μg tritiated oligosaccharide; 1 hour and 22 hours after administration. As to the method:
Wild-type mice (C57BL/6) of about 3 months were treated with β-[6-^3H]Gal-(1-3)-β-GalNAc-(1-4)-[α-Neu5Ac-(2-3)]-β-Gal-(1-4)-Glc.
Administration was performed intraperitoneally, subcutaneously or intravenously (Orlando P. et al 1979, Pharmacological Research Communications 11:759-773). For the intravenous route, the injection was performed in the central vein of the tail. The treatment was carried out with 10 μg of tritiated oligosaccharide (10 μCi) dissolved in 0.1 ml of saline. For each experimental group 5 animals were used. 1 hour and 22 hours after administration, the animals were sacrificed by cardiac perfusion (10 min), in order to remove the blood, especially in the central nervous system. The brain was removed and the different areas (cortex, hippocampus, substantia nigra, cerebellum, trunk) were identified and separated. Tissue samples were lyophilized, homogenized and the relative associated radioactivity was detected at the β-counter (Orlando et al 1979, Pharmacological Research Communication 11:759-773).

Turning to `CC(=O)N[C@H]1[C@H](O[C@@H]2[C@H](O[C@]3(C(=O)O)C[C@H](O)[C@@H](NC(C)=O)[C@H]([C@H](O)[C@H](O)CO)O3)[C@@H](O)[C@H](O[C@H]3[C@H](O)[C@@H](O)C(O)O[C@@H]3CO)O[C@@H]2CO)O[C@H](CO)[C@H](O)[C@@H]1O[C@@H]1O[C@H](CO)[C@H](O)[C@H](O)[C@H]1O` (stereo partly drawn) [β-Gal-(1-3)-β-GalNAc-(1-4)-[α-Neu5Ac-(2-3)]-β-Gal-(1-4)-Glc], the “toxicity of the oligosaccharide to cells” value in the series with Neuroblastoma cells (neuroblastoma cells) is listed as “without being toxic to cells”. Also, the “protection of cells from DCB-induced death” value in the series on Neuroblastoma cells (neuroblastoma cells treated with DCB (3′,4′-Dichlorobenzamyl hydrochloride)) was “able to protect cells from DCB-induced death”. Besides, the “number of proteins whose expression is induced” value in series [1] stood at 320.
“β-[6-^3H]Gal-(1-3)-β-GalNAc-(1-4)-[α-Neu5Ac-(2-3)]-β-Gal-(1-4)-Glc”: in series [2], the “oligosaccharide reaching the central nervous system / crossing the blood-brain barrier (associated radioactivity in brain areas)” value is “a fair amount of the oligosaccharide is able to reach the central nervous system, including the substantia nigra, within a few hours”.
